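Results reflect a 48-hour exposure of cells in 96-well plates to compound at five concentrations. Here, GI50 denotes the concentration required for 50% inhibition of growth.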 The source made the active and inactive calls. No stated cut-off is given here; in the data, active = GI50 up to about 1.1 µM and inactive = higher.
Tests used:
Assay in all cases: NCI-60 cell line screen, 48 h
SW-620 = tested on: SW-620
SK-MEL-28 = tested on: SK-MEL-28
IGROV-1 = tested on: IGROV-1
SK-MEL-2 = tested on: SK-MEL-2
HOP-62 = tested on: HOP-62
SN12C = tested on: SN12C
MCF7 = tested on: MCF7
DU-145 = tested on: DU-145
K562 = tested on: K562
SNB-75 = tested on: SNB-75
Malme-3M = tested on: Malme-3M
UACC-62 = tested on: UACC-62
OVCAR-4 = tested on: OVCAR-4
UACC-257 = tested on: UACC-257
A498 = tested on: A498
PC-3 = tested on: PC-3
LOX IMVI = tested on: LOX IMVI
SF-268 = tested on: SF-268
T47D = tested on: T47D
SF-539 = tested on: SF-539

Measured: GI50

O=C(O)CSc1ccc([N+](=O)[O-])cc1[N+](=O)[O-]
inactive: SW-620 > 100 µM | SK-MEL-28 > 100 µM | IGROV-1 > 100 µM | SK-MEL-2 > 100 µM | HOP-62 > 100 µM | SN12C > 100 µM | MCF7 > 100 µM | DU-145 > 100 µM | K562 > 100 µM | SNB-75 > 100 µM | Malme-3M > 100 µM | UACC-62 > 100 µM | OVCAR-4 > 100 µM | UACC-257 > 100 µM | A498 > 100 µM | PC-3 > 100 µM | LOX IMVI > 100 µM | SF-268 > 100 µM | T47D > 100 µM

COC(=O)C1=C(C(=O)OC)SC2(S1)C1=C(CCCC1)SC(C(=O)OC)=C2C(=O)OC
inactive: SW-620 2.09 µM | SK-MEL-28 9.29 µM | IGROV-1 8.32 µM | SK-MEL-2 15.5 µM | HOP-62 5.62 µM | SN12C 2.76 µM | MCF7 2.61 µM | DU-145 1.64 µM | K562 1.62 µM | Malme-3M 11.4 µM | UACC-62 12.7 µM | OVCAR-4 12.2 µM | UACC-257 13.1 µM | A498 6.21 µM | SF-539 1.51 µM | PC-3 5.02 µM | LOX IMVI 2.83 µM | SF-268 9.71 µM | T47D 2.54 µM

O=c1c2cc(I)ccc2nc(S)n1Cc1ccccc1
inactive: SW-620 59 µM | SK-MEL-28 43.2 µM | IGROV-1 4.07 µM | SK-MEL-2 14.6 µM | HOP-62 13.3 µM | SN12C 10.6 µM | MCF7 28.1 µM | DU-145 20.2 µM | K562 35.6 µM | SNB-75 20.6 µM | UACC-62 19.6 µM | OVCAR-4 9.71 µM | UACC-257 11.7 µM | A498 18.8 µM | SF-539 15.5 µM | PC-3 13.7 µM | LOX IMVI 37.8 µM | SF-268 11 µM | T47D > 100 µM

O=C(O)c1cc([N+](=O)[O-])cc2c(=O)c3cnccc3[nH]c12
inactive: SK-MEL-28 > 100 µM | IGROV-1 > 100 µM | SK-MEL-2 > 100 µM | HOP-62 > 100 µM | SN12C > 100 µM | MCF7 > 100 µM | DU-145 > 100 µM | K562 > 100 µM | SNB-75 > 100 µM | Malme-3M > 100 µM | UACC-62 65.2 µM | OVCAR-4 > 100 µM | A498 > 100 µM | PC-3 29.6 µM | T47D > 100 µM

COC(=O)[C@]12CC[C@H]3CN(S(=O)(=O)c4ccc(C)cc4)[C@H]([C@H]31)[C@H](c1ccco1)N2S(=O)(=O)c1ccc(C)cc1
inactive: SW-620 70.1 µM | SK-MEL-28 51.4 µM | IGROV-1 35.8 µM | SK-MEL-2 29.2 µM | HOP-62 66.4 µM | SN12C 37.6 µM | MCF7 32.2 µM | DU-145 40.6 µM | K562 30.2 µM | Malme-3M 23.8 µM | UACC-62 19.4 µM | OVCAR-4 27.7 µM | UACC-257 28.6 µM | A498 53.2 µM | SF-539 > 100 µM | PC-3 28.8 µM | LOX IMVI 34.7 µM | SF-268 42.3 µM | T47D 14.1 µM

CC1=NN=C(N)N/C1=C/C(Sc1ccc(Cl)cc1)c1cccs1 (stereo not given)
inactive: SW-620 15.9 µM | SK-MEL-28 17.5 µM | IGROV-1 11.4 µM | SK-MEL-2 13.4 µM | HOP-62 12.5 µM | SN12C 26.8 µM | MCF7 6.53 µM | DU-145 23.1 µM | K562 13.9 µM | Malme-3M 13.1 µM | UACC-62 > 10 µM | OVCAR-4 16.5 µM | UACC-257 18.3 µM | A498 16.4 µM | PC-3 12.8 µM | LOX IMVI 16.7 µM | SF-268 10.6 µM | T47D 22 µM

C[C@H]1C[C@H]2[C@@H]3CCC4=CC(=O)C=C[C@]4(C)C3=CC[C@]2(C)[C@@]1(O)C(=O)CO
inactive: SK-MEL-28 > 100 µM | IGROV-1 > 100 µM | SK-MEL-2 > 100 µM | HOP-62 > 100 µM | SN12C > 100 µM | MCF7 > 100 µM | DU-145 > 100 µM | K562 > 100 µM | SNB-75 > 100 µM | Malme-3M > 100 µM | UACC-62 > 100 µM | OVCAR-4 > 100 µM | UACC-257 > 100 µM | A498 23.4 µM | PC-3 99.5 µM | LOX IMVI > 100 µM | SF-268 > 100 µM | T47D 69.8 µM

COc1ccc(CCCNC(=O)c2cc(OC)c(OC)cc2CCO)cc1OC
inactive: SW-620 > 100 µM | SK-MEL-28 > 100 µM | IGROV-1 > 100 µM | SK-MEL-2 > 100 µM | HOP-62 > 100 µM | SN12C > 100 µM | MCF7 > 100 µM | DU-145 > 100 µM | K562 > 100 µM | SNB-75 > 100 µM | UACC-62 > 100 µM | OVCAR-4 > 100 µM | UACC-257 > 100 µM | A498 > 100 µM | SF-539 > 100 µM | PC-3 > 100 µM | LOX IMVI > 100 µM | SF-268 > 100 µM | T47D > 100 µM

C=CCOC1OC(CS(=O)(=O)O)C(OC(C)=O)C(OC(C)=O)C1OC(C)=O (stereo not given)
inactive: SW-620 > 100 µM | SK-MEL-28 > 100 µM | IGROV-1 > 100 µM | SK-MEL-2 > 100 µM | HOP-62 > 100 µM | SN12C > 100 µM | MCF7 > 100 µM | DU-145 > 100 µM | K562 38.1 µM | SNB-75 > 100 µM | Malme-3M > 100 µM | UACC-62 > 100 µM | OVCAR-4 > 100 µM | UACC-257 > 100 µM | A498 > 100 µM | PC-3 > 100 µM | LOX IMVI > 100 µM | T47D > 100 µM

O=c1c(C(c2cccc(C(c3c(O)oc4ccccc4c3=O)c3c(O)oc4ccccc4c3=O)c2)c2c(O)oc3ccccc3c2=O)c(O)oc2ccccc12
inactive: SW-620 > 100 µM | SK-MEL-28 > 100 µM | IGROV-1 34 µM | SK-MEL-2 > 100 µM | HOP-62 30.3 µM | SN12C 22.1 µM | MCF7 13.6 µM | DU-145 39.4 µM | K562 27.9 µM | SNB-75 3.73 µM | UACC-62 29 µM | UACC-257 69 µM | A498 > 100 µM | SF-539 19.8 µM | PC-3 37.9 µM | LOX IMVI 18.7 µM | SF-268 28.4 µM | T47D 24.3 µM

O=C1CC(c2ccc(Cl)cc2)Oc2ccccc21 (stereo not given)
inactive: SW-620 25.7 µM | SK-MEL-28 85.9 µM | IGROV-1 14.6 µM | SK-MEL-2 18.8 µM | HOP-62 19.6 µM | MCF7 3.83 µM | DU-145 69 µM | K562 4.86 µM | SNB-75 13.6 µM | UACC-62 20.6 µM | OVCAR-4 43.4 µM | UACC-257 40.3 µM | A498 26.2 µM | SF-539 13.4 µM | PC-3 20.2 µM | LOX IMVI 29.8 µM | SF-268 28.4 µM | T47D 32 µM

Reference: ChEMBL document CHEMBL1201862, “PubChem BioAssay data set” (2004)
